Measured values: PubChem BioAssay AID248 (DTP/NCI, 2004)
Values joined by “and” are separate entries in the source; they are usually repeats but may differ in a detail not shown here. Identical values can stand only once. Toxic doses and inconclusive results are not listed. No stated cut-off is given here; in the data, active means T/C of 150% or more; inactive means T/C below 125%.

System: L1210 leukemia ip in BDF1 mice, survival T/C
Assay: NCI In Vivo Anticancer Drug Screen. Data for tumor model L1210 Leukemia (intraperitoneal) in B6D2F1 (BDF1) mice
Conditions: higher = longer survival
Procedure, shortened: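 Read-out is survival time, reported as the treated-group measurement over the vehicle-control measurement.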

[1] = endpoint: mean survival time, dose: 12.5 mg/kg/injection, schedule: Q01DX009 (ip), vehicle: Klucel (hydroxypropylcellulose) (HPC)
[2] = endpoint: mean survival time, dose: 25.0 mg/kg/injection, schedule: Q01DX009 (ip), vehicle: Klucel (hydroxypropylcellulose) (HPC)
[3] = endpoint: mean survival time, dose: 12.5 mg/kg/injection, schedule: Q01DX009 (ip), vehicle: saline
[4] = endpoint: mean survival time, dose: 400.0 mg/kg/injection, schedule: Q04DX002 (ip), vehicle: saline with Tween-80
[5] = endpoint: mean survival time, dose: 50.0 mg/kg/injection, schedule: Q01DX001 (ip), vehicle: saline
[6] = endpoint: mean survival time, dose: 100.0 mg/kg/injection, schedule: Q01DX001 (ip), vehicle: saline
[7] = endpoint: mean survival time, dose: 200.0 mg/kg/injection, schedule: Q01DX001 (ip), vehicle: saline
[8] = endpoint: mean survival time, dose: 100.0 mg/kg/injection, schedule: Q01DX001 (ip), vehicle: carboxymethylcellulose (CMC)
[9] = endpoint: mean survival time, dose: 200.0 mg/kg/injection, schedule: Q01DX001 (ip), vehicle: carboxymethylcellulose (CMC)
[10] = endpoint: mean survival time, dose: 400.0 mg/kg/injection, schedule: Q01DX001 (ip), vehicle: carboxymethylcellulose (CMC)
[11] = endpoint: mean survival time, dose: 50.0 mg/kg/injection, schedule: Q04DX002 (ip), vehicle: Klucel (hydroxypropylcellulose) (HPC)

Measured: T/C

CCCCCCCCCCCC(=O)Nc1ccccc1
inactive: [1] 92 % of control | [2] 90 % of control | endpoint: mean survival time, dose: 50.0 mg/kg/injection, schedule: Q01DX009 (ip), vehicle: Klucel (hydroxypropylcellulose) (HPC) 110 % of control

CCCCCCCCCCCCCC(CCCCCCCCCCCC)CCCCCCCCCCCC
inactive: endpoint: mean survival time, dose: 100.0 mg/kg/injection, schedule: Q01DX001 (ip), vehicle: saline with Tween-80 92 % of control | endpoint: mean survival time, dose: 200.0 mg/kg/injection, schedule: Q01DX001 (ip), vehicle: saline with Tween-80 87 % of control | endpoint: mean survival time, dose: 400.0 mg/kg/injection, schedule: Q01DX001 (ip), vehicle: saline with Tween-80 87 % of control

Cc1ccc2c3csc4ccccc4c-3nc2c1
inactive: endpoint: mean survival time, dose: 6.25 mg/kg/injection, schedule: Q01DX009 (ip), vehicle: saline 101 % of control | [3] 95 % of control | endpoint: mean survival time, dose: 12.5 mg/kg/injection, schedule: Q04DX003 (ip), vehicle: saline 93 % of control | endpoint: mean survival time, dose: 25.0 mg/kg/injection, schedule: Q04DX003 (ip), vehicle: saline 92 % of control

C[Si](C)(C)c1ccc(-c2ccccc2)cc1
inactive: endpoint: mean survival time, dose: 25.6 mg/kg/injection, schedule: Q04DX002 (ip), vehicle: saline with Tween-80 90 % of control | endpoint: mean survival time, dose: 64.0 mg/kg/injection, schedule: Q04DX002 (ip), vehicle: saline with Tween-80 90 % of control | endpoint: mean survival time, dose: 160.0 mg/kg/injection, schedule: Q04DX002 (ip), vehicle: saline with Tween-80 97 % of control | [4] 101 % of control

C=C1C(=O)OC2/C=C(\C)CC/C=C(/C=O)C(OC)C(OC(=O)C(C)C)C12 (centres undefined)
inactive: endpoint: mean survival time, dose: 6.25 mg/kg/injection, schedule: Q01DX009 (ip), vehicle: Klucel (hydroxypropylcellulose) (HPC) 95 % of control | [1] 100 % of control | [2] 101 % of control

O=S(=O)(Cc1ccccc1)/C(=C\c1ccccc1)c1ccccc1
inactive: [5] 105 % of control | [6] 105 % of control | [7] 105 % of control | endpoint: mean survival time, dose: 400.0 mg/kg/injection, schedule: Q01DX001 (ip), vehicle: saline 103 % of control

Nc1ccc2c(c1)[nH]c(=O)c1cc(Br)ccc12
inactive: [8] 104 % of control | [9] 100 % of control | [10] 102 % of control

COC(=O)c1ccc(NCC(=N)N)cc1
inactive: [6] 95 % of control | [7] 107 % of control

CC1=CC(=O)N(CCl)C1=O
inactive: endpoint: mean survival time, dose: 100.0 mg/kg/injection, schedule: Q04DX003 (ip), vehicle: saline with Tween-80 102 % of control | endpoint: mean survival time, dose: 200.0 mg/kg/injection, schedule: Q04DX003 (ip), vehicle: saline with Tween-80 94 % of control

COC(=O)C1OCOC2C(COS(=O)(=O)c3ccc(C)cc3)OCOC12 (centres undefined)
inactive: [11] 100 % of control | endpoint: mean survival time, dose: 100.0 mg/kg/injection, schedule: Q04DX002 (ip), vehicle: Klucel (hydroxypropylcellulose) (HPC) 98 % of control and 111 % of control | endpoint: mean survival time, dose: 200.0 mg/kg/injection, schedule: Q04DX002 (ip), vehicle: Klucel (hydroxypropylcellulose) (HPC) 95 % of control and 101 % of control | endpoint: mean survival time, dose: 400.0 mg/kg/injection, schedule: Q04DX002 (ip), vehicle: Klucel (hydroxypropylcellulose) (HPC) 101 % of control

Cc1ccc2cccc(O)c2n1
inactive: endpoint: mean survival time, dose: 12.5 mg/kg/injection, schedule: Q04DX002 (ip), vehicle: Klucel (hydroxypropylcellulose) (HPC) 94 % of control | endpoint: mean survival time, dose: 25.0 mg/kg/injection, schedule: Q04DX002 (ip), vehicle: Klucel (hydroxypropylcellulose) (HPC) 88 % of control | [11] 102 % of control

C=C(CCCCCCCCCCCCCCCC)C(=O)O
inactive: endpoint: mean survival time, dose: 100.0 mg/kg/injection, schedule: Q04DX002 (ip), vehicle: saline with Tween-80 91 % of control | [4] 88 % of control

CCOC(=O)N1C(=O)NC(=O)C1c1ccccc1 (centres undefined)
inactive: [5] 97 % of control | [6] 115 % of control | [7] 97 % of control

CN(C)c1ccc(/C=C/c2ccnc3ccccc23)cc1
inactive: endpoint: mean survival time, dose: 4.0 mg/kg/injection, schedule: Q01DX Z (ip), vehicle: saline 103 % of control | endpoint: mean survival time, dose: 5.0 mg/kg/injection, schedule: Q01DX010 (ip), vehicle: saline 94 % of control and 100 % of control | endpoint: mean survival time, dose: 6.0 mg/kg/injection, schedule: Q01DX Z (ip), vehicle: saline 103 % of control | endpoint: mean survival time, dose: 8.0 mg/kg/injection, schedule: Q01DX Z (ip), vehicle: saline 103 % of control | endpoint: mean survival time, dose: 10.0 mg/kg/injection, schedule: Q01DX009 (ip), vehicle: saline 93 % of control and 101 % of control | endpoint: mean survival time, dose: 10.0 mg/kg/injection, schedule: Q01DX010 (ip), vehicle: saline 98 % of control | endpoint: mean survival time, dose: 10.0 mg/kg/injection, schedule: Q01DX Z (ip), vehicle: saline 97 % of control | endpoint: mean survival time, dose: 20.0 mg/kg/injection, schedule: Q01DX009 (ip), vehicle: saline 95 % of control and 97 % of control | endpoint: mean survival time, dose: 20.0 mg/kg/injection, schedule: Q01DX010 (ip), vehicle: saline 100 % of control and 91 % of control | endpoint: mean survival time, dose: 40.0 mg/kg/injection, schedule: Q01DX009 (ip), vehicle: saline 95 % of control and 88 % of control | endpoint: mean survival time, dose: 40.0 mg/kg/injection, schedule: Q01DX010 (ip), vehicle: saline 93 % of control and 100 % of control | [5] 101 % of control | endpoint: mean survival time, dose: 64.0 mg/kg/injection, schedule: Q01DX010 (iv), vehicle: saline 108 % of control | endpoint: mean survival time, dose: 80.0 mg/kg/injection, schedule: Q01DX009 (ip), vehicle: saline 101 % of control | [8] 103 % of control | [6] 97 % of control | endpoint: mean survival time, dose: 128.0 mg/kg/injection, schedule: Q01DX010 (iv), vehicle: saline 87 % of control | [9] 109 % of control | [7] 103 % of control | endpoint: mean survival time, dose: 256.0 mg/kg/injection, schedule: Q01DX010 (iv), vehicle: saline 92 % of control | [10] 106 % of control | endpoint: mean survival time, dose: 800.0 mg/kg/injection, schedule: Q01DX001 (ip), vehicle: carboxymethylcellulose (CMC) 97 % of control | endpoint: median survival time, dose: 10.0 mg/kg/injection, schedule: Q01DX009 (ip), vehicle: saline 100 % of control and 87 % of control | endpoint: median survival time, dose: 20.0 mg/kg/injection, schedule: Q01DX009 (ip), vehicle: saline 100 % of control and 87 % of control | endpoint: median survival time, dose: 40.0 mg/kg/injection, schedule: Q01DX009 (ip), vehicle: saline 93 % of control and 105 % of control | endpoint: median survival time, dose: 80.0 mg/kg/injection, schedule: Q01DX009 (ip), vehicle: saline 100 % of control and 87 % of control

CSC(=S)NNC(=O)c1ccc([N+](=O)[O-])cc1
inactive: endpoint: mean survival time, dose: 6.25 mg/kg/injection, schedule: Q04DX003 (ip), vehicle: saline sonified 96 % of control | endpoint: mean survival time, dose: 12.5 mg/kg/injection, schedule: Q04DX003 (ip), vehicle: saline sonified 98 % of control

CC(=O)Nc1ccc(/C=N\NC(=S)Nc2ccc3cn[nH]c3c2)cc1
inactive: endpoint: mean survival time, dose: 50.0 mg/kg/injection, schedule: Q01DX001 (ip), vehicle: carboxymethylcellulose (CMC) 100 % of control | [8] 97 % of control | [9] 103 % of control | [10] 97 % of control

CC(CN(C)C)C(=O)/C=C/c1ccccc1 (centres undefined)
inactive: [3] 103 % of control | endpoint: mean survival time, dose: 25.0 mg/kg/injection, schedule: Q01DX009 (ip), vehicle: saline 104 % of control | endpoint: mean survival time, dose: 50.0 mg/kg/injection, schedule: Q01DX009 (ip), vehicle: saline 107 % of control

O=C(Nc1ccccc1)c1ccc([N+](=O)[O-])cc1Cl
inactive: endpoint: mean survival time, dose: 100.0 mg/kg/injection, schedule: Q04DX003 (ip), vehicle: Klucel (hydroxypropylcellulose) (HPC) 100 % of control | endpoint: mean survival time, dose: 200.0 mg/kg/injection, schedule: Q04DX003 (ip), vehicle: Klucel (hydroxypropylcellulose) (HPC) 95 % of control | endpoint: mean survival time, dose: 400.0 mg/kg/injection, schedule: Q04DX003 (ip), vehicle: Klucel (hydroxypropylcellulose) (HPC) 90 % of control

CCCC(C)NCCOC(=O)c1ccc(N)cc1 (centres undefined)
inactive: endpoint: mean survival time, dose: 75.0 mg/kg/injection, schedule: Q01DX001 (ip), vehicle: saline 95 % of control
